Data: patent publication US6429326B1, “Benzylidenecamphor-substituted silanes/organosiloxanes for use in photostabilizing sunscreen compositions comprising dibenzoylmethane compounds” (Societe L'Oreal, priority 1998, dated 2002)

For CC12CCC(/C(=C\c3ccc(OCCC[Si](C)(O[Si](C)(C)C)O[Si](C)(C)C)cc3)C1=O)C2(C)C (stereo not drawn), the melting point was 47 to 48 °C.
For COc1cc(/C=C2/C(=O)C3(C)CCC2C3(C)C)ccc1OCCC[Si](C)(C)C (stereo not drawn), the melting point was 79 to 80 °C.
CC12CCC(/C(=C\c3ccc(OCCC[Si](C)(C)C)cc3)C1=O)C2(C)C (stereo not drawn) showed a melting point of 100 to 101 °C.
